Measured values reported in patent US11433053B2, “LSD1 inhibitor and preparation method and application thereof” (CSPC ZHONGQI PHARMACEUTICAL TECHNOLOGY (SHIJIAZHUANG) CO., …, priority 2017, dated 2022).
pIC50: −log10 of the molar value.

These compounds were tested against hERG potassium channel (Homo sapiens (Human), UniProt Q12809) (assay: Assay on inhibiting hERG potassium channel (automatic patch clamp, CHO-hERG cells)). Settings: Qpatch, max test concentration 40 μM.
Chain of hERG potassium channel (Q12809 whole entry): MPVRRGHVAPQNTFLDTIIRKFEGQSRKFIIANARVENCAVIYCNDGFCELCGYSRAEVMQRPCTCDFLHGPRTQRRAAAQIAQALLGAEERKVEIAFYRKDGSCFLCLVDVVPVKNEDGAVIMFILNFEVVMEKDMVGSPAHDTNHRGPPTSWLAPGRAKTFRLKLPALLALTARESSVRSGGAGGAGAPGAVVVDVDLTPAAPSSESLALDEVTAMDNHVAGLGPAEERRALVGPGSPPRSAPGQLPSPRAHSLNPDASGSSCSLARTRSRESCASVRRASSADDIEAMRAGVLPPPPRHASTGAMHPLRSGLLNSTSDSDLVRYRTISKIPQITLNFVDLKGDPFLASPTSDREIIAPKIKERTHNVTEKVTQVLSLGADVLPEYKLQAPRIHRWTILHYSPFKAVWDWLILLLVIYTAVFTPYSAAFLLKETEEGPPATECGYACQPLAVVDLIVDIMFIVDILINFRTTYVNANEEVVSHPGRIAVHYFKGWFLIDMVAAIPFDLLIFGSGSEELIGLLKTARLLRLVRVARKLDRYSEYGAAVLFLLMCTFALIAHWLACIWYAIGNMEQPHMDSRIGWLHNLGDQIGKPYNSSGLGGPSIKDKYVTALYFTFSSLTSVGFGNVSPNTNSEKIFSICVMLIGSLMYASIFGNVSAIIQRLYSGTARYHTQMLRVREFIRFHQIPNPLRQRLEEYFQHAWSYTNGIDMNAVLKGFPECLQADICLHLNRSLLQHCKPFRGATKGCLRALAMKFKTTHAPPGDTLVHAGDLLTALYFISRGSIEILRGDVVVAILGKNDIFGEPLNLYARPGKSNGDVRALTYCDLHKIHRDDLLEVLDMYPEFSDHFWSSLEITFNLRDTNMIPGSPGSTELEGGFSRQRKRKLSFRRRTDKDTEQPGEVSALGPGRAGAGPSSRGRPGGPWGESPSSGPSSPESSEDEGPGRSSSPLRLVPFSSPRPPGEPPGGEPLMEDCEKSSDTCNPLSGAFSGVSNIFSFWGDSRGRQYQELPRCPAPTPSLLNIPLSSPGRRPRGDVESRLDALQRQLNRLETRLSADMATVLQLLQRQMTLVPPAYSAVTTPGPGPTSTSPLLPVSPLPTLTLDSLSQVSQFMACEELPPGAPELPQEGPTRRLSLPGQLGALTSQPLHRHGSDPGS
Format: cell-based
Protocol: Experimental purpose: Using automatic patch clamp method to detect the effect of the sample to be tested on hERG potassium channel.
4.1.1 CHO-hERG cells were cultured in 175 cm^2 flasks. When the cell density was increased to 60-80%, the culture solution was removed and the resultant was washed with 7 mL PBS (Phosphate Buffered Saline phosphate buffer), then 3 mL of digestive juice was added to digest.
4.1.2 After the digestion finished, 7 mL culture solution was added to neutralize. Then centrifuge, aspirate the supernatant, and then resuspend by adding 5 mL culture solution to ensure a cell density of 2-5×10^6/mL.
Single cell high impedance sealing and whole cell pattern formation were all done automatically by the Qpatch instrument. After the whole-cell recording mode was obtained, the cells were clamped at −80 mV. 50-Millisecond−50 mV preamplifier was applied prior to a 5 second+40 mV depolarization stimulus. Then the voltage was repolarized to −50 mV for 5 seconds and back to −80 mV. This voltage stimulation was applied every 15 seconds, and the extracellular fluid was recorded over 5 minutes after 2 minutes' record, and then the administration process was started. The compound concentration was started from the lowest test concentration, and each test concentration was given for 2.5 minutes. Test at least 3 cells (n≥3) for each concentration.
4.4.1 Dilute 20 mM mother liquor of the compound with extracellular fluid 5 μL of 20 mM mother liquor of the compound was added to 2495 μL extracellular fluid, and the mixture was 500-fold diluted to 40 μM. Then 0.2% DMSO in extracellular fluid was 3-fold diluted sequentially to obtain the final concentration to be tested.
4.4.2 The max test concentration was 40 μM, 6 concentrations were 40, 13.33, 4.44, 1.48, 0.49, and 0.16 μM respectively.
Experimental data was analyzed by XLFit software.
N[C@H]1CC[C@H](c2nc(C3(CN[C@@H]4C[C@H]4c4ccccc4)CC3)no2)CC1 [Example 144] showed a pIC50 of under 4.40.
Compound N[C@H]1CC[C@@H](c2nc(C3(CN[C@@H]4C[C@H]4c4ccccc4)CC3)no2)CC1 [Example 145] has a pIC50 of under 4.40.
N[C@H]1CC[C@H](c2cc(C3(CN[C@@H]4C[C@H]4c4ccccc4)CC3)no2)CC1 [Example 241] gave a pIC50 of under 4.40.
